Measured values taken from publication PMC10372924, “The Jasmine (Jasminum sambac) Genome Provides Insight into the Biosynthesis of Flower Fragrances and Jasmonates” (Genomics, Proteomics & Bioinformatics, 2022).

Molecular target: T1, JsTPS3 (GST-JsTPS3) (Jasminum sambac, UniProt A0A8T9EC85)
T1 construct: gene TPS3; full-length CDS in pGEX-6p-1, N-terminal GST tag kept, E. coli Rosetta (DE3), ~98 kDa with tag
T1 sequence (A0A8T9EC85 1-540): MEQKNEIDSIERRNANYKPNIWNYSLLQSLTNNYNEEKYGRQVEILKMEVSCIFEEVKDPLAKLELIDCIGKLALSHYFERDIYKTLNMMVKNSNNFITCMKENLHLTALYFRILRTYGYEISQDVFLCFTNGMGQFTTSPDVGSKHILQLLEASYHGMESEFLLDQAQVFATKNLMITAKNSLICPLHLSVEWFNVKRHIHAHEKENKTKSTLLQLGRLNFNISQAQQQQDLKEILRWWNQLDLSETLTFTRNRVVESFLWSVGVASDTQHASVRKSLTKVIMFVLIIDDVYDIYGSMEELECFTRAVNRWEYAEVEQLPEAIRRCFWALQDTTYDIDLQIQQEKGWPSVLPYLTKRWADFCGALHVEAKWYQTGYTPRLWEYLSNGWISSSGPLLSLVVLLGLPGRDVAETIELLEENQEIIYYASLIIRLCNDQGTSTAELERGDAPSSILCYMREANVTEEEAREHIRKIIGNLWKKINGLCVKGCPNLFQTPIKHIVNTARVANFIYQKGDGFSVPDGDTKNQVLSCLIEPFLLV
Test: GC-Orbitrap MS detection of trans-beta-ocimene and beta-ocimene formed
Type: biochemical
Conditions: 60 uM GPP; 30 mM HEPES pH 7.5, 5 mM DTT, 25 mM MgCl2; 30 °C 1 h, then 45 °C 15 min; 10 or 15 ug enzyme in 1 ml

## CC(C)=CCC/C(C)=C/COP(=O)(O)OP(=O)(O)O [GPP, geranyl pyrophosphate]
  GC-Orbitrap MS detection of trans-beta-ocimene and beta-ocimene formed: recombinant JsTPS3 protein exerts TPS activity by catalyzing GPP into trans-β-ocimene and β-ocimene
